What was measured:
[1] = target: T1, Human immunodeficiency virus type 1 protease (Human immunodeficiency virus 1, UniProt Q72874); assay: (§1) Tested for the HIV Protease inhibitory activity of the compound; assay type: functional
[2] = target: T1, Human immunodeficiency virus type 1 protease; assay: as §1
[3] = Tested for pharmacokinetic parameter to calculate the total body clearance at a dosage of 12 mg/kg in rat; assay type: ADME, organism-based; parameters: dose 12 mg/kg; settings: in vivo, read-out: ClT
[4] = Tested for pharmacokinetic parameter to calculate the total body clearance at a dosage of 2.5 mg/kg in dog; assay type: ADME, organism-based, Canis lupus familiaris; parameters: dose 2.5 mg/kg; settings: in vivo, read-out: ClT
[5] = Oral bioavailability in dog; assay type: ADME, organism-based, Canis lupus familiaris; settings: in vivo
[6] = Oral bioavailability in rat; assay type: ADME, organism-based; settings: in vivo
[7] = Tested for pharmacokinetic parameter to calculate the steady-state volume of distributio at a dosage of 12 mg/kg in rat; assay type: ADME, organism-based; parameters: dose 12 mg/kg; settings: in vivo, read-out: Vss
[8] = Tested for pharmacokinetic parameter to calculate the steady-state volume of distributio at a dosage of 2.5 mg/kg in dog; assay type: ADME, organism-based, Canis lupus familiaris; parameters: dose 2.5 mg/kg; settings: in vivo, read-out: Vss
[9] = Tested for pharmacokinetic parameter to calculate the half life period at a dosage of 12 mg/kg in rat; assay type: ADME, organism-based; parameters: dose 12 mg/kg; settings: in vivo
[10] = Tested for pharmacokinetic parameter to calculate the half life period at a dosage of 2.5 mg/kg in dog; assay type: ADME, organism-based, Canis lupus familiaris; parameters: dose 2.5 mg/kg; settings: in vivo
[11] = target: Cathepsin D (Homo sapiens) (UniProt P07339); assay: Tested for the inhibitory activity against human aspartyl protease, cathepsin D at 10 uM concentration
Cathepsin D (Homo sapiens), sequence (P07339 65-162 limits assumed): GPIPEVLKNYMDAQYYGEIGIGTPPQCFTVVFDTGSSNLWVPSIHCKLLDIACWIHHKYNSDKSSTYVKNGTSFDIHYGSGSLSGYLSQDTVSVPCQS
Cathepsin D (Homo sapiens), sequence (P07339 169-412 limits assumed): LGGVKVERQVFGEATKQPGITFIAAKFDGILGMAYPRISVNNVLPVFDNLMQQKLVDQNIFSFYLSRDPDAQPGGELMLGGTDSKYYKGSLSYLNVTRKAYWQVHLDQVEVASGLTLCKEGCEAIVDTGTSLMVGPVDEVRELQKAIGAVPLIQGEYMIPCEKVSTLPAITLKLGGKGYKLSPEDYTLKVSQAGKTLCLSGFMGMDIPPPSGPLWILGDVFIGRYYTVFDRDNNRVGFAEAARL

[12] = target: T2, Cathepsin E (Homo sapiens) (UniProt P14091); assay: Tested for the inhibitory activity against human aspartyl protease, cathepsin E at 10 uM concentration
T2 sequence (whole entry): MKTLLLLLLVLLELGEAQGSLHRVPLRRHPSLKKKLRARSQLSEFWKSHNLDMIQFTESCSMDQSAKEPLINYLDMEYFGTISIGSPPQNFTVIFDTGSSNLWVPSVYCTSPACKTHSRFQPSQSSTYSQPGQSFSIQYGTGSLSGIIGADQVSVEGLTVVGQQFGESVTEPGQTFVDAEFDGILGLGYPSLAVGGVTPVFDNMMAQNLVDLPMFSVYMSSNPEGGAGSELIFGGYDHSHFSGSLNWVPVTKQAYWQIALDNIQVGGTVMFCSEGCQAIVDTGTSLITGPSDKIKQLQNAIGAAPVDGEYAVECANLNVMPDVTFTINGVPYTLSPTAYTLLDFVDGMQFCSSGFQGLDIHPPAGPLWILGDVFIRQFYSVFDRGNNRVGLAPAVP

H9 = assay: Tested for the antiviral activity against HIV-1 IIIB-infected H9 cells; assay type: functional; settings: Homo sapiens, read-out: ED50 (the source's name)
MT4 = assay: Tested for the antiviral activity against HIV-1 IIIB-infected MT-4; assay type: functional; settings: Homo sapiens, read-out: ED50 (the source's name)
Pepsin A (Homo sapiens) = Pepsin A (Homo sapiens) (UniProt P0DJD9); assay: Inhibitory activity against human aspartyl protease, pepsin at 10 uM
Pepsin A (Homo sapiens), sequence (P0DJD9 63-388 limits assumed): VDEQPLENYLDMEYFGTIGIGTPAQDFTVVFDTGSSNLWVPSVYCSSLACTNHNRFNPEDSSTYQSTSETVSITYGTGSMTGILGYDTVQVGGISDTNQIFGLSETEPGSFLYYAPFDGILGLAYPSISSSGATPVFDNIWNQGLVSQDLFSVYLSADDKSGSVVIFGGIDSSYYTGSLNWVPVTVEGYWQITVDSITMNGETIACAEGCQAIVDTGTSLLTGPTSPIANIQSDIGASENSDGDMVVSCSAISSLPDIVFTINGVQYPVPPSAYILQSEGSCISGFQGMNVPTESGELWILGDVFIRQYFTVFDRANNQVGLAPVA

[13] = target: T1, Human immunodeficiency virus type 1 protease; assay: Tested for the binding affinity against HIV-1 Protease
Renin (Homo sapiens) = target: T3, Renin (Homo sapiens) (UniProt P00797); assay: Tested for the inhibitory activity against human aspartyl protease, renin at 10 uM concentration
T3 sequence (whole entry): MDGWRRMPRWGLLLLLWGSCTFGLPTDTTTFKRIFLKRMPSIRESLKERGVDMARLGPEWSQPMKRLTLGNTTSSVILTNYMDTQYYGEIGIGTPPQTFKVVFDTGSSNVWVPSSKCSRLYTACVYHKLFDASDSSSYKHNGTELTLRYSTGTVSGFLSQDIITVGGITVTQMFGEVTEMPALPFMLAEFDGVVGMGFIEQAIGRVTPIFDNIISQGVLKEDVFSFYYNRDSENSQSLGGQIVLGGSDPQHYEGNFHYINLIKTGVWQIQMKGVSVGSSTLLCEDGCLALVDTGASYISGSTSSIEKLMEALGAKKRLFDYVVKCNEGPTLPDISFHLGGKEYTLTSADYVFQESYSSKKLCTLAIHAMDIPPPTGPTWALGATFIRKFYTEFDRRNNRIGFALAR

[14] = Tested for antiviral activity against clinical isolates such as AZT resistant strain; assay type: functional; settings: read-out: ED50 (the source's name)
[15] = target: Human immunodeficiency virus type 1 protease (Human immunodeficiency virus 1) (UniProt Q72874); assay: Tested for the activity against HIV protease
[16] = target: Gastricsin (Homo sapiens) (UniProt P20142); assay: Tested for the inhibitory activity against human aspartyl protease gastricsin at 10 uM concentration
Gastricsin (Homo sapiens), sequence (P20142 whole entry, looked up): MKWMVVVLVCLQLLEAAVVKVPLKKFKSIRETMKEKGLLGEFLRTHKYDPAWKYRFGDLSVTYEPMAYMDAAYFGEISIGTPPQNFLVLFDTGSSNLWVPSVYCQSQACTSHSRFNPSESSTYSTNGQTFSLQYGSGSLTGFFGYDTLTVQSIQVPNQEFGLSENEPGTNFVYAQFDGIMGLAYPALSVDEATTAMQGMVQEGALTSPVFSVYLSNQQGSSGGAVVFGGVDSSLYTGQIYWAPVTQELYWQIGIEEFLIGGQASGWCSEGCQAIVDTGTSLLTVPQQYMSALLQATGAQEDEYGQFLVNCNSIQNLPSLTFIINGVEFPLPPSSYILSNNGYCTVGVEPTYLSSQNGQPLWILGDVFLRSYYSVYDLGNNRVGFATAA

[17] = Tested for antiviral activity in HIV-1 infected PBMC; 100-300; assay type: functional; settings: Human immunodeficiency virus 1; read-out: ED50 (the source's name)

Work on CC(=O)CC(c1ccccc1)c1c(O)c2ccccc2oc1=O (configuration not stated) [WARFARIN] yielded an IC50 [1] of ~30000 nM.
For CCC(c1ccccc1)c1c(O)cc(CCc2ccccc2)oc1=O (configuration not stated), the Ki [2] was 500 nM.
Work on CCC(Cc1ccccc1)c1cc(O)c(C(CC)c2ccccc2)c(=O)o1 (configuration not stated) yielded a clearance [3] of 0.8 mL/min/kg, a clearance [4] of 0.7 mL/min/kg and a bioavailability [5] of 45%. It also gave a bioavailability [6] of 76%, a Vd [7] of 0.1 L/kg and a Vd [8] of 0.26 L/kg. It also gave a half-life [9] of 4 h, a half-life [10] of 6 h and an inhibition [11] of 52%. The inhibition [12] was 72%, the EC50 (H9) was 3000 nM and the EC50 (MT4) was 3000 nM. It also gave an inhibition (Pepsin A (Homo sapiens)) of 53%, a Ki [13] of 38 nM and an inhibition (Renin (Homo sapiens)) of 0%. It also gave an EC50 [14] of 4000 nM, a TCID50 [15] of 20 µM and an inhibition [16] of 0%.
With CCC(c1ccccc1)c1c(O)c2ccccc2oc1=O (configuration not stated) [PHENPROCOUMON] the EC50 [17] was 300000 nM and the Ki [2] was 1000 nM.

From ChEMBL document CHEMBL1127342, “Structure-based design of HIV protease inhibitors: 4-hydroxycoumarins and 4-hydroxy-2-pyrones as non-peptidic inhibitors” (J Med Chem, 1994)
